Data from ChEMBL document CHEMBL2363022, “Malaria Box Schistosomiasis Screening Data” (2013).

Columns and labels:
Type in all cases: functional
[1] = system: Schistosoma mansoni; test: (§1) MMV: Motility assay. Percent change (relative to DMSO controls) @ 5 uM of movement of 4-5 Schistosoma mansoni adult males after 24 h as measured by the Consensus Voting Luminance Difference algorithm available on WormAssay (PMID:22303493). Occasional incongruence ocurrs between the motility scores and the visually adjudicated 'toxicity scores'. In these cases the 'toxicity score' should be prioritized. Only those Malaria box 'Drug-like' cpds yielding the most severe phenotypes vs. somules were tested. Caffrey group UCSF.
[2] = system: Schistosoma mansoni; parameters: scale not given here
[3] = system: Schistosoma mansoni; test: MMV: Toxicity @ 5 uM to 4-5 Schistosoma mansoni adult males after 72 h on a scale of 0 (none) - 4 (most). Includes short descriptors of effects as judged visually (PMID:19597541). Only those Malaria box 'drug-like' cpds yielding the most severe phenotypes vs. somules were tested. Caffrey group UCSF.
[4] = system: Schistosoma mansoni; parameters: scale not given here; remark: listed apart in the source
[5] = system: Schistosoma mansoni; test: MMV: Toxicity @ 5 uM to 4-5 Schistosoma mansoni adult males after 48 h on a scale of 0 (none) - 4 (most). Includes short descriptors of effects as judged visually (PMID:19597541). Only those Malaria box 'drug-like' cpds yielding the most severe phenotypes vs. somules were tested. Caffrey group UCSF.
[6] = system: Schistosoma mansoni; test: as §1, with “48” for “24”
[7] = system: Schistosoma mansoni; test: as §1, with “72” for “24”
[8] = system: Schistosoma mansoni; test: MMV: Toxicity @ 5 uM to 4-5 Schistosoma mansoni adult males after 24 h on a scale of 0 (none) - 4 (most). Includes short descriptors of effects as judged visually (PMID:19597541). Only those Malaria box 'drug-like' cpds yielding the most severe phenotypes vs. somules were tested. Caffrey group UCSF.
[9] = system: Schistosoma mansoni; parameters: scale not given here; remark: listed apart in the source

Row | SMILES | Motility [1] | Toxicity [2] | Toxicity [3] | Toxicity [4] | Toxicity [5] | Motility [6] | Motility [7] | Toxicity [8] | Toxicity [9]
1 | CCCCc1ccc(NS(=O)(=O)c2cc3c4c(c2)CCN4C(=O)CC3)cc1 | 109.4 | 2 | 0 | 0 | 0 | 170.6 | 80.4 | 0 | 0
2 | Oc1c(CN2CCN(c3ccccc3F)CC2)cc(Br)c2cccnc12 | 231 | 0 | 4 | 4 | 4 | 54.2 | 54.8 | 3 | 4
3 | CCN(CC)CCNc1ncnc2c1[nH]c1ccc(Br)cc12 | No effect | 4 | 0 | 4 | 0 | 119 | No effect | 0 | 4
4 | Cl.N=c1n(CCN2CCCCC2)c2ccccc2n1CC(O)c1cccc(Br)c1 (centres undefined) | 92.2 | 2 | 0 | 4 | 0 | 74.8 | 114.5 | 0 | 2
5 | COCCNCC(O)Cn1c2ccc(Cl)cc2c2cc(Cl)ccc21 (centres undefined) | 94 | 4 | 0 | 4 | 0 | 94 | No effect | 0 | 4
6 | CC1CCN(Cc2ccc(NC(=O)c3cc4ccc5cccnc5c4[nH]3)cc2)CC1 | 138 | 0 | 0 | 4 | 0 | 97.2 | 110 | 0 | 4
7 | Clc1ccc2c(N3CCCC3)ccnc2c1 | 163 | 1 | 0 | 2 | 0 | 131.1 | No effect | 0 | 0
8 | O=C(Nc1ccc(F)c(Cl)c1)Nc1ccc(Cl)c(Cl)c1 | 3.2 | 3 | 4 | 4 | 4 | 3.2 | 2.6 | 2 | 3
9 | O=C(Nc1nc(-c2ccccn2)cs1)c1ccccc1Br | 69.2 | 2 | 0 | 4 | 0 | 80.4 | 88 | 0 | 2
10 | CCN(CC)CCn1c(=N)n(CC(O)c2ccc(Cl)c(Cl)c2)c2ccccc21.Cl (centres undefined) | 68.1 | 3 | 0 | 4 | 1 | 7.4 | 66.9 | 0 | 4
11 | COc1cccc(O)c1CN1CCC2(CCCN(Cc3ccc(F)cc3)C2)C1 (centres undefined) | 168.1 | 3 | 0 | 3 | 0 | 133.2 | 92.4 | 0 | 2
12 | CNCCCNc1ccnc2cc(Cl)ccc12 | 113.2 | 2 | 0 | 2 | 0 | 116.2 | No effect | 0 | 2
13 | CC(C)(C)CC(C)(C)NCC(O)COc1ccc(Cl)cc1Cl (centres undefined) | – | 0 | – | 4 | 1 | 53 | – | 0 | 4
